Measurements from patent US8426386B2, “NK1 receptor antagonist composition” (Lion Corporation, priority 2006, dated 2013).

Test system: NK1 receptor
Experiment: NK1 Receptor Antagonism Assay (calcium imaging, substance P stimulation)
Format: cell-based, human
Conditions: for effect as the NK1 receptor antagonist (in words): summary of Table 1
Text: [Performance Evaluation Test] NK1 Receptor Antagonism Assay
In this test, maltose, maltotriose, maltotetraose, maltopentaose, maltohexaose and maltoheptaose were purchased from SIGMA, isomaltose, isomaltotriose, isomaltotetraose, isomaltopentaose, isomaltohexaose and isomaltoheptaose were purchased from Seikagaku Corporation, and four types of oligosaccharides-1-kestose, fructofranosylnystose, nystose and galactotetraose—were purchased from Wako Pure Chemicals Industries Ltd. Each oligosaccharide was diluted with saline, and used.
In order to transiently express a cloned human NK1 receptor in HEK293, cDNA of the human NK1 receptor was cut out from pCDM8 (Invitrogen), and cloned in an expression vector pCDM9 derived by inserting an ampicillin resistant gene (BLUESCRIPT, nucleotides 1973 to 2964 from SK+) at a SacII site.
HEK293 cells were seeded at 1×10^5 cells in a Falcon dish (diameter: 3.5 cm) using α-MEM medium (Gibco) containing 10% bovine fetal serum, and cultured in a 5% CO2 incubator at 37° C. overnight. Then, 20 μg of the expression vector was transfected using Transfection Reagent FuGENE6 (Roche) according to attached instructions, and the transfectants were incubated at 37° C. for 3 days and assayed by a calcium imaging method.
According to Renganathan et al's method (Renganathan M et al., J. Neurophysiol., 84(2), […] (2000)), nerve cells were dispersed and isolated from spinal dorsal root ganglion in a wild type mouse, and 1×10^5 thereof were seeded in a 24-well plate coated with poly-L-lysine. The cells were cultured in 90% DMEM medium (GIBCO) supplemented with 10% bovine fetal serum, 2 mM glutamine, 100 U/mL of penicillin/streptomycin, 100 ng/mL of NGF (SIGMA) and 5 μM cytosine arabinoside (SIGMA) under 5% CO2 at 37° C. The cells were cultured for 1 to 3 weeks, and subsequently subjected to a calcium imaging analysis. A half of the nerve cells was identified to be positive for the NK1 receptor by staining the nerve cells derived from spinal dorsal root ganglion in the wild type mouse with an anti-NK1 receptor antibody (supplied from CHEMICON International).
The cells which express the NK1 receptor transiently or constitutively were subjected to measurement using a high resolution digital B/W cooling CCD camera (ORCA supplied from Hamamatsu Photonics K.K.), and their images were analyzed using an analysis software (AQUA COSMOS supplied from Hamamatsu Photonics K.K.). When the cells were labeled for calcium, Fluo4-AM (supplied from Molecular Probe) was used as a calcium sensitive dye. Fifty μg of Fluo4-AM was dissolved in 400 μL of DMSO in a vial, 4 μL of Pluronic F-127 (Molecular Probe) was added and mixed, and then 4 mL of OPTI-MEM (GIBCO) was added thereto. The calcium sensitive dye solution thus prepared was added to the cells, which were then incubated at 37° C. for 60 minutes. An agonist, an antagonist and samples to be evaluated were prepared at concentrations which were 10 times higher than assay concentrations, and analyzed by adding a one tenth volume of the cell suspension upon analysis. All reagents and an assay temperature were kept at 37° C. For the cells transfected transiently, YFP reporter DNA fluorescence (excitation: 490 nm) was used for identifying the transfected cells. Upon measurement, a fluorescence intensity obtained by initially imaging the untreated cells was made an initial value. After passing one minute, a change of calcium/fluorescence intensity in the sample to be evaluated at the desired concentration was monitored with an interval of one second before and after the addition (2 to 5 minutes). Subsequently, substance P was added, and immediately after (2 to 5 minutes), an antagonistic activity of the sample to be evaluated was determined by monitoring the change of intracellular calcium concentrations as the change of the fluorescence intensities with the interval of one second. […]

[1] = evaluated concentration 1000 ppm, substance P 100 μM
[2] = evaluated concentration 0.1 ppm, substance P 100 μM
[3] = evaluated concentration 1 ppm, substance P 100 μM
[4] = evaluated concentration 10 ppm, substance P 100 μM
[5] = evaluated concentration 100 ppm, substance P 100 μM

## OC[C@H]1O[C@H](OC[C@H]2O[C@H](OC[C@H]3O[C@H](OC[C@H]4O[C@H](OC[C@H]5O[C@H](OC[C@H]6OC(O)[C@H](O)[C@@H](O)[C@@H]6O)[C@H](O)[C@@H](O)[C@@H]5O)[C@H](O)[C@@H](O)[C@@H]4O)[C@H](O)[C@@H](O)[C@@H]3O)[C@H](O)[C@@H](O)[C@@H]2O)[C@H](O)[C@@H](O)[C@@H]1O (stereo partly drawn) [Isomaltohexaose, isomaltohexaose, reference compound]
[1]
  Efficacy (NK1 receptor antagonistic activity grade): D (Ineffective: the antagonistic activity was less than 65%, or the stimulating or agonistic activity of the sample was strong.)
  effect as the NK1 receptor antagonist (in words): no NK1 receptor antagonistic activity was observed at all

## OC[C@H]1O[C@@](CO)(OC[C@@]2(OC[C@@]3(O[C@H]4O[C@H](CO)[C@@H](O)[C@H](O)[C@H]4O)O[C@H](CO)[C@@H](O)[C@@H]3O)O[C@H](CO)[C@@H](O)[C@@H]2O)[C@@H](O)[C@@H]1O [Nystose, nystose, reference compound]
[1]
  Efficacy (NK1 receptor antagonistic activity grade): D (Ineffective: the antagonistic activity was less than 65%, or the stimulating or agonistic activity of the sample was strong.)
  effect as the NK1 receptor antagonist (in words): no NK1 receptor antagonistic activity was observed at all

## maltotriose
[2]
  Efficacy (NK1 receptor antagonistic activity grade): C (Slightly effective: the antagonistic activity was less than 65%, and a stimulating or agonistic activity of the sample was weak.)
[3]
  Efficacy (NK1 receptor antagonistic activity grade): C (Slightly effective: the antagonistic activity was less than 65%, and a stimulating or agonistic activity of the sample was weak.)
[4]
  Efficacy (NK1 receptor antagonistic activity grade): C (Slightly effective: the antagonistic activity was less than 65%, and a stimulating or agonistic activity of the sample was weak.)
[5]
  Efficacy (NK1 receptor antagonistic activity grade): B (Effective: the antagonistic activity was 65% or more and less than 75% and the more excellent performance than in the positive control was shown.)
[1]
  Efficacy (NK1 receptor antagonistic activity grade): A (Complete response: the antagonistic activity was 75% or more and much more excellent performance than in the positive control was shown.)
  effect as the NK1 receptor antagonist (in words): high effect

## maltohexaose
[2]
  Efficacy (NK1 receptor antagonistic activity grade): C (Slightly effective: the antagonistic activity was less than 65%, and a stimulating or agonistic activity of the sample was weak.)
[3]
  Efficacy (NK1 receptor antagonistic activity grade): C (Slightly effective: the antagonistic activity was less than 65%, and a stimulating or agonistic activity of the sample was weak.)
[4]
  Efficacy (NK1 receptor antagonistic activity grade): B (Effective: the antagonistic activity was 65% or more and less than 75% and the more excellent performance than in the positive control was shown.)
[5]
  Efficacy (NK1 receptor antagonistic activity grade): B (Effective: the antagonistic activity was 65% or more and less than 75% and the more excellent performance than in the positive control was shown.)
[1]
  Efficacy (NK1 receptor antagonistic activity grade): B (Effective: the antagonistic activity was 65% or more and less than 75% and the more excellent performance than in the positive control was shown.)
  effect as the NK1 receptor antagonist (in words): high effect

## OC[C@H]1O[C@@](CO)(OC[C@@]2(OC[C@@]3(OC[C@@]4(O[C@H]5O[C@H](CO)[C@@H](O)[C@H](O)[C@H]5O)O[C@H](CO)[C@@H](O)[C@@H]4O)O[C@H](CO)[C@@H](O)[C@@H]3O)O[C@H](CO)[C@@H](O)[C@@H]2O)[C@@H](O)[C@@H]1O [Fructofranosylnystose, fructofranosylnystose, reference compound]
[1]
  Efficacy (NK1 receptor antagonistic activity grade): D (Ineffective: the antagonistic activity was less than 65%, or the stimulating or agonistic activity of the sample was strong.)
  effect as the NK1 receptor antagonist (in words): no NK1 receptor antagonistic activity was observed at all

## OC[C@H]1O[C@H](O[C@H]2[C@H](O)[C@@H](O)C(O)O[C@@H]2CO)[C@H](O)[C@@H](O)[C@@H]1O (mixture of isomers) [Maltose, maltose]
[2]
  Efficacy (NK1 receptor antagonistic activity grade): D (Ineffective: the antagonistic activity was less than 65%, or the stimulating or agonistic activity of the sample was strong.)
[3]
  Efficacy (NK1 receptor antagonistic activity grade): D (Ineffective: the antagonistic activity was less than 65%, or the stimulating or agonistic activity of the sample was strong.)
[4]
  Efficacy (NK1 receptor antagonistic activity grade): C (Slightly effective: the antagonistic activity was less than 65%, and a stimulating or agonistic activity of the sample was weak.)
[5]
  Efficacy (NK1 receptor antagonistic activity grade): C (Slightly effective: the antagonistic activity was less than 65%, and a stimulating or agonistic activity of the sample was weak.)
[1]
  Efficacy (NK1 receptor antagonistic activity grade): B (Effective: the antagonistic activity was 65% or more and less than 75% and the more excellent performance than in the positive control was shown.)
  effect as the NK1 receptor antagonist (in words): high effect

## OC[C@H]1O[C@H](OC[C@H]2OC(O)[C@H](O)[C@@H](O)[C@@H]2O)[C@H](O)[C@@H](O)[C@@H]1O (stereo partly drawn) [Isomaltose, isomaltose, reference compound]
[1]
  Efficacy (NK1 receptor antagonistic activity grade): D (Ineffective: the antagonistic activity was less than 65%, or the stimulating or agonistic activity of the sample was strong.)
  effect as the NK1 receptor antagonist (in words): no NK1 receptor antagonistic activity was observed at all

## OC[C@H]1O[C@@H](O[C@@H]2[C@H](O)[C@@H](O)[C@H](O[C@@H]3[C@H](O)[C@@H](O)[C@H](O[C@@H]4[C@H](O)[C@@H](O)C(O)O[C@@H]4CO)O[C@@H]3CO)O[C@@H]2CO)[C@H](O)[C@@H](O)[C@H]1O (stereo partly drawn) [Galactotetraose, galactotetraose, reference compound]
[1]
  Efficacy (NK1 receptor antagonistic activity grade): D (Ineffective: the antagonistic activity was less than 65%, or the stimulating or agonistic activity of the sample was strong.)
  effect as the NK1 receptor antagonist (in words): no NK1 receptor antagonistic activity was observed at all

## SPANTIDE II: standard substance SPANTIDE II (peptidic analog of substance P), positive control (SPANTIDEII) [reference compound]
Positive control, 100 ppm (Table 1), substance P 100 μM
  NK1 receptor antagonistic activity: 65%

## maltoheptaose
[2]
  Efficacy (NK1 receptor antagonistic activity grade): D (Ineffective: the antagonistic activity was less than 65%, or the stimulating or agonistic activity of the sample was strong.)
[3]
  Efficacy (NK1 receptor antagonistic activity grade): C (Slightly effective: the antagonistic activity was less than 65%, and a stimulating or agonistic activity of the sample was weak.)
[4]
  Efficacy (NK1 receptor antagonistic activity grade): C (Slightly effective: the antagonistic activity was less than 65%, and a stimulating or agonistic activity of the sample was weak.)
[5]
  Efficacy (NK1 receptor antagonistic activity grade): B (Effective: the antagonistic activity was 65% or more and less than 75% and the more excellent performance than in the positive control was shown.)
[1]
  Efficacy (NK1 receptor antagonistic activity grade): B (Effective: the antagonistic activity was 65% or more and less than 75% and the more excellent performance than in the positive control was shown.)
  effect as the NK1 receptor antagonist (in words): high effect

## maltopentaose
0.1 ppm
  efficacy at a low concentration (in words): high efficacy
[2]
  Efficacy (NK1 receptor antagonistic activity grade): B (Effective: the antagonistic activity was 65% or more and less than 75% and the more excellent performance than in the positive control was shown.)
[3]
  Efficacy (NK1 receptor antagonistic activity grade): B (Effective: the antagonistic activity was 65% or more and less than 75% and the more excellent performance than in the positive control was shown.)
[4]
  Efficacy (NK1 receptor antagonistic activity grade): B (Effective: the antagonistic activity was 65% or more and less than 75% and the more excellent performance than in the positive control was shown.)
[5]
  Efficacy (NK1 receptor antagonistic activity grade): A (Complete response: the antagonistic activity was 75% or more and much more excellent performance than in the positive control was shown.)
[1]
  Efficacy (NK1 receptor antagonistic activity grade): A (Complete response: the antagonistic activity was 75% or more and much more excellent performance than in the positive control was shown.)
  effect as the NK1 receptor antagonist (in words): high effect
